Reference: US7300946B2, “N-(substituted arylmethyl)-4-(disubstituted methyl) piperidines and pyridines” (Bayer CropScience AG, priority 2002, dated 2007)

System: tobacco budworm (Heliothis virescens [Fabricius])
Assay: surface-treated diet test against the tobacco budworm
Assay type: in vivo
Conditions: tobacco budworm second instar larvae, surface-treated diet, 0.25 millimoles of candidate insecticide on the surface of the diet, five-day exposure; for Percent Mortality: compared to total number of insects infested; for Percent Growth Inhibition: inhibition of insect weight relative to untreated controls
Procedure, shortened: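 Wheat germ artificial diet surface-treated with 40 µL of 50 mM DMSO stock diluted 1:7 in 1:1 water/acetone (0.25 millimolar on diet), or sub-multiples for rate tests. One second-instar larva per well, 25° C, 60% RH, 5 days; percent weight inhibition vs DMSO controls and percent mortality.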

SMILES	Percent Mortality [%]	Percent Growth Inhibition [%]
CC(C)OC(=O)Nc1ccc(CN2CCC(C(OC(=O)Nc3cccc(F)c3)c3ccc(Cl)cc3)CC2)cc1 (stereo not shown) [Compound 501]	100	100
CC(C)OC(=O)Nc1ccc(CN2CCC(C(OC(=O)Nc3cc(F)cc(F)c3)c3ccc(Cl)cc3)CC2)cc1 (stereo not shown) [Compound 502]	100	100
CC(C)OC(=O)Nc1ccc(CN2CCC(C(OC(=O)Nc3ccc(Cl)cc3)c3ccc(F)cc3)CC2)cc1 (stereo not shown) [Compound 503]	100	100
CC(C)OC(=O)Nc1ccc(CN2CCC(C(OC(=O)Nc3cccc(F)c3)c3ccc(F)cc3)CC2)cc1 (stereo not shown) [Compound 504]	100	100
CC(C)OC(=O)Nc1ccc(CN2CCC(C(OC(=O)Nc3cc(F)cc(F)c3)c3ccc(F)cc3)CC2)cc1 (stereo not shown) [Compound 505]	100	100
CC(C)OC(=O)Nc1ccc(CN2CCC(C(OC(=O)Nc3ccc(Cl)cc3)c3ccc(Cl)cc3Cl)CC2)cc1 (stereo not shown) [Compound 506]	100	100
CC(C)OC(=O)Nc1ccc(CN2CCC(C(OC(=O)Nc3cc(F)cc(F)c3)c3ccc(Cl)cc3Cl)CC2)cc1 (stereo not shown) [Compound 507]	100	100
CC(C)OC(=O)Nc1ccc(CN2CCC(C(OC(=O)Nc3ccc(Cl)cc3)c3cc(Cl)cc(Cl)c3)CC2)cc1 (stereo not shown) [Compound 508]	100	100
CC(C)OC(=O)Nc1ccc(CN2CCC(C(OC(=O)Nc3cccc(F)c3)c3cc(Cl)cc(Cl)c3)CC2)cc1 (stereo not shown) [Compound 509]	100	100
CC(C)OC(=O)Nc1ccc(CN2CCC(C(OC(=O)Nc3cc(F)cc(F)c3)c3cc(Cl)cc(Cl)c3)CC2)cc1 (stereo not shown) [Compound 510]	100	100
CC(C)OC(=O)Nc1ccc(CN2CCC(C(OC(=O)Nc3cc(F)cc(F)c3)c3ccc(C(F)(F)F)cc3)CC2)cc1 (stereo not shown) [Compound 512]	100	100
CC(C)OC(=O)Nc1ccc(CN2CCC(C(OC(=O)Nc3ccc(Cl)cc3)c3ccc(OC(F)(F)F)cc3)CC2)cc1 (stereo not shown) [Compound 513]	100	100
CC(C)OC(=O)Nc1ccc(CN2CCC(C(OC(=O)Nc3cccc(F)c3)c3ccc(OC(F)(F)F)cc3)CC2)cc1 (stereo not shown) [Compound 514]	100	100
CC(C)OC(=O)Nc1ccc(CN2CCC(C(OC(=O)Nc3cc(F)cc(F)c3)c3ccc(OC(F)(F)F)cc3)CC2)cc1 (stereo not shown) [Compound 515]	100	100
COC(=O)N(c1ccc(CN2CCC(C(OC(=O)Nc3cc(F)cc(F)c3)c3ccc(C(F)(F)F)cc3)CC2)cc1)c1ccccn1 (stereo not shown) [Compound 516]	100	100
CCNC(=O)Nc1ccc(CN2CCC(C(OC(=O)Nc3cc(F)cc(F)c3)c3ccc(C(F)(F)F)cc3)CC2)cc1 (stereo not shown) [Compound 517]	0	86
CCNC(=S)Nc1ccc(CN2CCC(C(OC(=O)Nc3cc(F)cc(F)c3)c3ccc(C(F)(F)F)cc3)CC2)cc1 (stereo not shown) [Compound 518]	17	96
CN(C)C(=O)Nc1ccc(CN2CCC(C(OC(=O)Nc3cc(F)cc(F)c3)c3ccc(C(F)(F)F)cc3)CC2)cc1 (stereo not shown) [Compound 519]	17	93
CNC(=O)Oc1ccc(CN2CCC(C(OC(=O)Nc3ccccc3)c3ccc(C(F)(F)F)cc3)CC2)cc1 (stereo not shown) [Compound 521]	100	100
CCON=Cc1ccc(CN2CCC(C(OC(=O)Nc3ccc(Cl)cc3)c3ccc(Cl)cc3)CC2)cc1 (stereo not shown) [Compound 523]	100	100
CCON=Cc1ccc(CN2CCC(C(OC(=O)Nc3cccc(F)c3)c3ccc(Cl)cc3)CC2)cc1 (stereo not shown) [Compound 524]	100	100
CCON=Cc1ccc(CN2CCC(C(OC(=O)Nc3cc(F)cc(F)c3)c3ccc(Cl)cc3)CC2)cc1 (stereo not shown) [Compound 525]	100	100
CCON=Cc1ccc(CN2CCC(C(OC(=O)Nc3ccc(Cl)cc3)c3ccc(F)cc3)CC2)cc1 (stereo not shown) [Compound 526]	100	100
CCON=Cc1ccc(CN2CCC(C(OC(=O)Nc3cccc(F)c3)c3ccc(F)cc3)CC2)cc1 (stereo not shown) [Compound 527]	100	100
CCON=Cc1ccc(CN2CCC(C(OC(=O)Nc3cc(F)cc(F)c3)c3ccc(F)cc3)CC2)cc1 (stereo not shown) [Compound 528]	100	100

SMILES	Percent Mortality [%]	Percent Growth Inhibition [%]
CCON=Cc1ccc(CN2CCC(C(OC(=O)Nc3ccc(Cl)cc3)c3ccc(Cl)cc3Cl)CC2)cc1 (stereo not shown) [Compound 529]	100	100
CCON=Cc1ccc(CN2CCC(C(OC(=O)Nc3cccc(F)c3)c3ccc(Cl)cc3Cl)CC2)cc1 (stereo not shown) [Compound 530]	100	100
CCON=Cc1ccc(CN2CCC(C(OC(=O)Nc3cc(F)cc(F)c3)c3ccc(Cl)cc3Cl)CC2)cc1 (stereo not shown) [Compound 531]	100	100
CCON=Cc1ccc(CN2CCC(C(OC(=O)Nc3ccc(Cl)cc3)c3cc(Cl)cc(Cl)c3)CC2)cc1 (stereo not shown) [Compound 532]	100	100
CCON=Cc1ccc(CN2CCC(C(OC(=O)Nc3cccc(F)c3)c3cc(Cl)cc(Cl)c3)CC2)cc1 (stereo not shown) [Compound 533]	100	100
CCON=Cc1ccc(CN2CCC(C(OC(=O)Nc3cc(F)cc(F)c3)c3cc(Cl)cc(Cl)c3)CC2)cc1 (stereo not shown) [Compound 534]	100	100
CCON=Cc1ccc(CN2CCC(C(OC(=O)Nc3cccc(F)c3)c3ccc(C(F)(F)F)cc3)CC2)cc1 (stereo not shown) [Compound 535]	100	100
CCON=Cc1ccc(CN2CCC(C(OC(=O)N(C)c3ccccc3)c3ccc(C(F)(F)F)cc3)CC2)cc1 (stereo not shown) [Compound 536]	100	100
CCON=Cc1ccc(CN2CCC(C(OC(=O)Nc3ccc(Cl)cc3)c3ccc(OC(F)(F)F)cc3)CC2)cc1 (stereo not shown) [Compound 537]	100	100
CCON=Cc1ccc(CN2CCC(C(OC(=O)Nc3cc(F)cc(F)c3)c3ccc(OC(F)(F)F)cc3)CC2)cc1 (stereo not shown) [Compound 538]	100	100
C#CCON=Cc1ccc(CN2CCC(C(OC(=O)Nc3ccc(Cl)cc3)c3ccc(C(F)(F)F)cc3)CC2)cc1 (stereo not shown) [Compound 539]	100	100
C#CCON=Cc1ccc(CN2CCC(C(OC(=O)Nc3cc(F)cc(F)c3)c3ccc(C(F)(F)F)cc3)CC2)cc1 (stereo not shown) [Compound 540]	100	100
CCN(CC)S(=O)(=O)c1ccc(CN2CCC(C(OC(=O)Nc3cc(F)cc(F)c3)c3ccc(C(F)(F)F)cc3)CC2)cc1 (stereo not shown) [Compound 541]	0	59
O=C(Nc1cc(F)cc(F)c1)OC(c1ccc(C(F)(F)F)cc1)C1CCN(Cc2ccc(S(=O)(=O)NC3CCCC3)cc2)CC1 (stereo not shown) [Compound 542]	0	43
O=C(Nc1ccc(Cl)cc1)OC(c1ccc(C(F)(F)F)cc1)C1CCN(Cc2ccc(-c3ccccc3)cc2)CC1 (stereo not shown) [Compound 543]	100	100
O=C(Nc1cc(F)cc(F)c1)OC(c1ccc(C(F)(F)F)cc1)C1CCN(Cc2ccc(-c3ccccc3)cc2)CC1 (stereo not shown) [Compound 544]	100	100
O=C(Nc1ccc(Cl)cc1)OC(c1ccc(C(F)(F)F)cc1)C1CCN(Cc2ccc(Oc3ccccc3)cc2)CC1 (stereo not shown) [Compound 545]	100	100
O=C(Nc1cc(F)cc(F)c1)OC(c1ccc(C(F)(F)F)cc1)C1CCN(Cc2ccc(Oc3ccccc3)cc2)CC1 (stereo not shown) [Compound 546]	100	100
O=C(Nc1cc(F)cc(F)c1)OC(c1ccc(C(F)(F)F)cc1)C1CCN(Cc2ccc(Oc3ccccc3F)cc2)CC1 (stereo not shown) [Compound 547]	100	100
O=C(Nc1cc(F)cc(F)c1)OC(c1ccc(C(F)(F)F)cc1)C1CCN(Cc2ccc(Oc3c(F)cccc3F)cc2)CC1 (stereo not shown) [Compound 548]	100	100
O=C(Nc1cc(F)cc(F)c1)OC(c1ccc(C(F)(F)F)cc1)C1CCN(Cc2ccc(OCc3ccccc3)cc2)CC1 (stereo not shown) [Compound 549]	0	98
O=C(Nc1cc(F)cc(F)c1)OC(c1ccc(C(F)(F)F)cc1)C1CCN(Cc2ccc(NC(=O)c3ccccc3Cl)cc2)CC1 (stereo not shown) [Compound 550]	100	100
O=C(Nc1cc(F)cc(F)c1)OC(c1ccc(C(F)(F)F)cc1)C1CCN(Cc2ccc(NC(=O)c3c(Cl)cccc3Cl)cc2)CC1 (stereo not shown) [Compound 551]	100	100
O=C(Nc1cc(F)cc(F)c1)OC(c1ccc(C(F)(F)F)cc1)C1CCN(Cc2ccc(NC(=O)c3c(F)cccc3F)cc2)CC1 (stereo not shown) [Compound 552]	100	100
COc1ccccc1C(=O)Nc1ccc(CN2CCC(C(OC(=O)Nc3cc(F)cc(F)c3)c3ccc(C(F)(F)F)cc3)CC2)cc1 (stereo not shown) [Compound 553]	100	100
